Data as given in the supplement of paper PMC10307832.

Assays:
Test in all cases: relative viability (nuclei count vs DMSO), 5 days (fraction); higher = more cells survive
[1] = system: NCI-H1650
Summary of the method: (§1)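 Dosing by pin tool came one day after lung cancer cell lines were seeded in 1536-well plates, using either one drug or a fixed anchor-drug dose plus five library-drug doses (not always all listed) in √10 steps. After 5 days, nuclei were counted on 4× images. Relative viability is treated-well nuclei count divided by vehicle-well nuclei count, and values are medians of duplicate plates.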

[2] = system: SW 1573
Summary of the method: as §1

[3] = system: COR-L23
Summary of the method: as §1

[4] = system: LCLC-97TM1
Summary of the method: as §1

[5] = system: NCI-H460
Summary of the method: as §1

[6] = system: HCC-15
Summary of the method: as §1

[7] = system: 201T
Summary of the method: as §1

[8] = system: ChaGo-K-1
Summary of the method: as §1

[9] = system: NCI-H650
Summary of the method: as §1

[10] = system: HCC-78
Summary of the method: as §1

[11] = system: NCI-H441
Summary of the method: as §1

[12] = system: LOU-NH91
Summary of the method: as §1

[13] = system: NCI-H2009
Summary of the method: as §1

[14] = system: NCI-H2023
Summary of the method: as §1

[15] = system: LCLC-103H
Summary of the method: as §1

[16] = system: NCI-H1648
Summary of the method: as §1

[17] = system: NCI-H1734
Summary of the method: as §1

[18] = system: A-427
Summary of the method: as §1

[19] = system: NCI-H1993
Summary of the method: as §1

[20] = system: HCC-366
Summary of the method: as §1

[21] = system: HARA
Summary of the method: as §1

[22] = system: NCI-H2126
Summary of the method: as §1

[23] = system: RERF-LC-KJ
Summary of the method: as §1

[24] = system: HCC-44
Summary of the method: as §1

CCCCCCCCCCCC1=C(O)C(=O)C=C(O)C1=O [Embelin] + Nc1ncn([C@H]2C[C@H](O)[C@@H](CO)O2)c(=O)n1 [Decitabine] (partner 2 µM)
relative viability ([1]; first compound 0.08 µM): 0.354
relative viability ([1]; first compound 0.8 µM): 0.362
relative viability ([1]; first compound 2.53 µM): 0.457
relative viability ([1]; first compound 8 µM): 0.384
relative viability ([2]; first compound 0.08 µM): 0.422
relative viability ([2]; first compound 0.8 µM): 0.674
relative viability ([2]; first compound 2.53 µM): 0.654
relative viability ([2]; first compound 8 µM): 0.456
relative viability ([3]; first compound 0.08 µM): 0.454
relative viability ([3]; first compound 0.8 µM): 0.479
relative viability ([3]; first compound 2.53 µM): 0.433
relative viability ([3]; first compound 8 µM): 0.393
relative viability ([4]; first compound 0.08 µM): 0.241
relative viability ([4]; first compound 0.8 µM): 0.264
relative viability ([4]; first compound 2.53 µM): 0.266
relative viability ([4]; first compound 8 µM): 0.235
relative viability ([5]; first compound 0.08 µM): 0.455
relative viability ([5]; first compound 0.8 µM): 0.511
relative viability ([5]; first compound 2.53 µM): 0.577
relative viability ([5]; first compound 8 µM): 0.254
relative viability ([6]; first compound 0.08 µM): 0.619
relative viability ([6]; first compound 0.8 µM): 0.694
relative viability ([6]; first compound 2.53 µM): 0.697
relative viability ([6]; first compound 8 µM): 0.617
relative viability ([7]; first compound 0.08 µM): 0.82
relative viability ([7]; first compound 0.8 µM): 0.884
relative viability ([7]; first compound 2.53 µM): 0.853
relative viability ([7]; first compound 8 µM): 0.831
relative viability ([8]; first compound 0.08 µM): 0.523
relative viability ([8]; first compound 0.8 µM): 0.531
relative viability ([8]; first compound 2.53 µM): 0.507
relative viability ([8]; first compound 8 µM): 0.484
relative viability ([9]; first compound 0.08 µM): 0.322
relative viability ([9]; first compound 0.8 µM): 0.371
relative viability ([9]; first compound 2.53 µM): 0.337
relative viability ([9]; first compound 8 µM): 0.297
relative viability ([10]; first compound 0.08 µM): 0.739
relative viability ([10]; first compound 0.8 µM): 0.751
relative viability ([10]; first compound 2.53 µM): 0.71
relative viability ([10]; first compound 8 µM): 0.675
relative viability ([11]; first compound 0.08 µM): 0.221
relative viability ([11]; first compound 0.8 µM): 0.268
relative viability ([11]; first compound 2.53 µM): 0.198
relative viability ([11]; first compound 8 µM): 0.237
relative viability ([12]; first compound 0.08 µM): 0.825
relative viability ([12]; first compound 0.8 µM): 0.893
relative viability ([12]; first compound 2.53 µM): 0.852
relative viability ([12]; first compound 8 µM): 0.801
relative viability ([13]; first compound 0.08 µM): 0.407
relative viability ([13]; first compound 0.8 µM): 0.412
relative viability ([13]; first compound 2.53 µM): 0.369
relative viability ([13]; first compound 8 µM): 0.351
relative viability ([14]; first compound 0.08 µM): 0.249
relative viability ([14]; first compound 0.8 µM): 0.234
relative viability ([14]; first compound 2.53 µM): 0.247
relative viability ([14]; first compound 8 µM): 0.155
relative viability ([15]; first compound 0.08 µM): 0.754
relative viability ([15]; first compound 0.8 µM): 0.755
relative viability ([15]; first compound 2.53 µM): 0.737
relative viability ([15]; first compound 8 µM): 0.718
relative viability ([16]; first compound 0.08 µM): 0.577
relative viability ([16]; first compound 0.8 µM): 0.549
relative viability ([16]; first compound 2.53 µM): 0.548
relative viability ([16]; first compound 8 µM): 0.365
relative viability ([17]; first compound 0.08 µM): 0.514
relative viability ([17]; first compound 0.8 µM): 0.56
relative viability ([17]; first compound 2.53 µM): 0.56
relative viability ([17]; first compound 8 µM): 0.516
relative viability ([18]; first compound 0.08 µM): 0.494
relative viability ([18]; first compound 0.8 µM): 0.555
relative viability ([18]; first compound 2.53 µM): 0.561
relative viability ([18]; first compound 8 µM): 0.54
relative viability ([19]; first compound 0.08 µM): 0.481
relative viability ([19]; first compound 0.8 µM): 0.608
relative viability ([19]; first compound 2.53 µM): 0.627
relative viability ([19]; first compound 8 µM): 0.548
relative viability ([20]; first compound 0.08 µM): 0.341
relative viability ([20]; first compound 0.8 µM): 0.306
relative viability ([20]; first compound 2.53 µM): 0.372
relative viability ([20]; first compound 8 µM): 0.336
relative viability ([21]; first compound 0.08 µM): 0.51
relative viability ([21]; first compound 0.8 µM): 0.549
relative viability ([21]; first compound 2.53 µM): 0.587
relative viability ([21]; first compound 8 µM): 0.573
relative viability ([22]; first compound 0.08 µM): 0.514
relative viability ([22]; first compound 0.8 µM): 0.519
relative viability ([22]; first compound 2.53 µM): 0.589
relative viability ([22]; first compound 8 µM): 0.513
relative viability ([23]; first compound 0.08 µM): 0.775
relative viability ([23]; first compound 0.8 µM): 0.652
relative viability ([23]; first compound 2.53 µM): 0.774
relative viability ([23]; first compound 8 µM): 0.514
relative viability ([24]; first compound 0.08 µM): 0.981
relative viability ([24]; first compound 0.8 µM): 0.953
relative viability ([24]; first compound 2.53 µM): 0.986
relative viability ([24]; first compound 8 µM): 0.944

CCCCCCCCCCCC1=C(O)C(=O)C=C(O)C1=O [Embelin] + O=C(CCCCCCC(=O)Nc1ccccc1)NO [Vorinostat] (partner 1 µM)
relative viability ([1]; first compound 0.08 µM): 0.634
relative viability ([1]; first compound 0.8 µM): 0.641
relative viability ([1]; first compound 2.53 µM): 0.543
relative viability ([1]; first compound 8 µM): 0.562
relative viability ([2]; first compound 0.08 µM): 0.7
relative viability ([2]; first compound 0.8 µM): 1.1
relative viability ([2]; first compound 2.53 µM): 0.817
relative viability ([2]; first compound 8 µM): 0.716
relative viability ([3]; first compound 0.08 µM): 0.404
relative viability ([3]; first compound 0.8 µM): 0.559
relative viability ([3]; first compound 2.53 µM): 0.386
relative viability ([3]; first compound 8 µM): 0.492
relative viability ([4]; first compound 0.08 µM): 0.789
relative viability ([4]; first compound 0.8 µM): 1.16
relative viability ([4]; first compound 2.53 µM): 0.652
relative viability ([4]; first compound 8 µM): 0.496
relative viability ([5]; first compound 0.08 µM): 0.687
relative viability ([5]; first compound 0.8 µM): 0.948
relative viability ([5]; first compound 2.53 µM): 0.933
relative viability ([5]; first compound 8 µM): 0.397
relative viability ([6]; first compound 0.08 µM): 0.906
relative viability ([6]; first compound 0.8 µM): 0.965
relative viability ([6]; first compound 2.53 µM): 0.908
relative viability ([6]; first compound 8 µM): 0.841
relative viability ([7]; first compound 0.08 µM): 0.993
relative viability ([7]; first compound 0.8 µM): 1.01
relative viability ([7]; first compound 2.53 µM): 1.04
relative viability ([7]; first compound 8 µM): 0.851
relative viability ([8]; first compound 0.08 µM): 0.739
relative viability ([8]; first compound 0.8 µM): 0.782
relative viability ([8]; first compound 2.53 µM): 0.871
relative viability ([8]; first compound 8 µM): 0.755
relative viability ([9]; first compound 0.08 µM): 0.393
relative viability ([9]; first compound 0.8 µM): 0.557
relative viability ([9]; first compound 2.53 µM): 0.354
relative viability ([9]; first compound 8 µM): 0.484
relative viability ([10]; first compound 0.08 µM): 0.467
relative viability ([10]; first compound 0.8 µM): 0.547
relative viability ([10]; first compound 2.53 µM): 0.553
relative viability ([10]; first compound 8 µM): 0.401
relative viability ([11]; first compound 0.08 µM): 0.691
relative viability ([11]; first compound 0.8 µM): 0.905
relative viability ([11]; first compound 2.53 µM): 0.841
relative viability ([11]; first compound 8 µM): 0.657
relative viability ([12]; first compound 0.08 µM): 0.939
relative viability ([12]; first compound 0.8 µM): 1.2
relative viability ([12]; first compound 2.53 µM): 0.933
relative viability ([12]; first compound 8 µM): 0.876
relative viability ([13]; first compound 0.08 µM): 0.748
relative viability ([13]; first compound 0.8 µM): 0.837
relative viability ([13]; first compound 2.53 µM): 0.705
relative viability ([13]; first compound 8 µM): 0.748
relative viability ([14]; first compound 0.08 µM): 0.622
relative viability ([14]; first compound 0.8 µM): 0.701
relative viability ([14]; first compound 2.53 µM): 0.565
relative viability ([14]; first compound 8 µM): 0.392
relative viability ([15]; first compound 0.08 µM): 0.851
relative viability ([15]; first compound 0.8 µM): 0.885
relative viability ([15]; first compound 2.53 µM): 0.75
relative viability ([15]; first compound 8 µM): 0.714
relative viability ([16]; first compound 0.08 µM): 0.464
relative viability ([16]; first compound 0.8 µM): 0.908
relative viability ([16]; first compound 2.53 µM): 0.487
relative viability ([16]; first compound 8 µM): 0.699
relative viability ([17]; first compound 0.08 µM): 0.868
relative viability ([17]; first compound 0.8 µM): 0.968
relative viability ([17]; first compound 2.53 µM): 0.929
relative viability ([17]; first compound 8 µM): 0.749
relative viability ([18]; first compound 0.08 µM): 0.856
relative viability ([18]; first compound 0.8 µM): 0.899
relative viability ([18]; first compound 2.53 µM): 0.88
relative viability ([18]; first compound 8 µM): 0.441
relative viability ([19]; first compound 0.08 µM): 0.825
relative viability ([19]; first compound 0.8 µM): 0.772
relative viability ([19]; first compound 2.53 µM): 0.764
relative viability ([19]; first compound 8 µM): 0.646
relative viability ([20]; first compound 0.08 µM): 0.409
relative viability ([20]; first compound 0.8 µM): 0.412
relative viability ([20]; first compound 2.53 µM): 0.364
relative viability ([20]; first compound 8 µM): 0.268
relative viability ([21]; first compound 0.08 µM): 0.559
relative viability ([21]; first compound 0.8 µM): 0.603
relative viability ([21]; first compound 2.53 µM): 0.545
relative viability ([21]; first compound 8 µM): 0.582
relative viability ([22]; first compound 0.08 µM): 0.803
relative viability ([22]; first compound 0.8 µM): 0.763
relative viability ([22]; first compound 2.53 µM): 0.796
relative viability ([22]; first compound 8 µM): 0.6
relative viability ([23]; first compound 0.08 µM): 0.673
relative viability ([23]; first compound 0.8 µM): 0.769
relative viability ([23]; first compound 2.53 µM): 0.681
relative viability ([23]; first compound 8 µM): 0.603
relative viability ([24]; first compound 0.08 µM): 1.09
relative viability ([24]; first compound 0.8 µM): 1.08
relative viability ([24]; first compound 2.53 µM): 1.12
relative viability ([24]; first compound 8 µM): 1.2
